In patent EP1003508B1, “ANTIMUTAGENIC AGENTS” (The GRASSETTI Family Trust, priority 1997, dated 1999):
Like-named read-outs stand apart in the source and are kept apart here.

Experiments:
[1] = system: metastases; settings: mice; Grassetti 1970, Nature 228:282; cited from earlier work
[2] = system: Salmonella Typhimurium bacteria T-100; assay: microbe, parasite or virus in culture; format: cell-based; settings: for Number of Colonies Per Plate With Inhibitor: inhibitor 0.3 mg/plate added one hour before carcinogen, average of 3; for inhibition at 0.3 mg/plate: Salmonella enterica, TYPHIMURIUM
[3] = target: T1, poly(ADP-ribose) polymerase (ADPRP) (Sus scrofa, UniProt I3LDH3); assay: Inhibition of ADPRP enzyme activity; format: biochemical, pig
T1 construct: ADPRP was prepared from pig thymus using the method of Khan and Shall; from tissue; host or cells: pig thymus
T1 sequence (I3LDH3 1-1017): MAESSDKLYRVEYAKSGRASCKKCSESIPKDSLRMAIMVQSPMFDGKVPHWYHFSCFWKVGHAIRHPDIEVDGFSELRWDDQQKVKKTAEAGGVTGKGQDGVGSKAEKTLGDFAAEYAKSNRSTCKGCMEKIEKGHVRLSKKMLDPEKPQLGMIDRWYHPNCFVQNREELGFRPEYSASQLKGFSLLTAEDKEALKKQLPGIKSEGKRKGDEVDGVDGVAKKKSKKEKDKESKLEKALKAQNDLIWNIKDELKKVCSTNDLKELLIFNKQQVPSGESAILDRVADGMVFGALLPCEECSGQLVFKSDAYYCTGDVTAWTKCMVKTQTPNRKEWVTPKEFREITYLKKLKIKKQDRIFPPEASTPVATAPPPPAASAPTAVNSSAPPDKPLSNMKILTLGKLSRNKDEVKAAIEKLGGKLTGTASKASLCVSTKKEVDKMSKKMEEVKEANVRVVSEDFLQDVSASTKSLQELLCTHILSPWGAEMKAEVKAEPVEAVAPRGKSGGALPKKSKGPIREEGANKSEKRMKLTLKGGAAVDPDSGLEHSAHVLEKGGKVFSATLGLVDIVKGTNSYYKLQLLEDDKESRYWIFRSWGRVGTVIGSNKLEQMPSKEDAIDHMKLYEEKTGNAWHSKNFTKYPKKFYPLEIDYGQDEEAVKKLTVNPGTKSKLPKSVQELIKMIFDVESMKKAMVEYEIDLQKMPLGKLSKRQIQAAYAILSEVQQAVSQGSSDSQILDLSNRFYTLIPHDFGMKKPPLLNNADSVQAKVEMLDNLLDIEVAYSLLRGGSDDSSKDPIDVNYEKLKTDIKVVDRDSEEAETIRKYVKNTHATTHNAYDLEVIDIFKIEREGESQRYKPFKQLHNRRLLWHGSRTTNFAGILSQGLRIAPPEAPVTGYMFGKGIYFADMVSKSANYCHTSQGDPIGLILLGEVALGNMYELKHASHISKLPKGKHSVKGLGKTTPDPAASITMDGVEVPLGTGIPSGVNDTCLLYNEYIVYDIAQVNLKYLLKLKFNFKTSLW
Protocol: ADPRP was prepared from pig thymus using the method of Khan and Shall (Biochem. Soc. Transactions 4:778 (1976)) with various modifications. Enzyme activity was approximately linear up to 15-20 minutes with NAD substrate concentration of 25 µM. Typical maximum enzyme activity was around 0.003 nmol product formed/minute in the assay (i.e. approximately 0.1% of substrate utilized). KM was approximately 25 µM.
Using a standard assay mix containing 2mM dithiothreitol (DTT) and […] crude enzyme/ml incubation, three experiments were performed with 6,6'-dithiodinicotinic acid added at concentrations varying from 5 µg/ml to 600 µg/ml (i.e. 1/60th molar equivalent of DTT to 2 molar equivalents). […] INHIBITION % OF CONTROLS
These are values for individual incubations which were stopped at either 7.5, 15, or 20 minutes.

[4] = Observed toxicity / tolerability; settings: can be taken in doses of at least approximately 0.1 gram per day for indefinite periods
Description: It can be taken in doses of at least approximately 0.1 gram per day for indefinite periods. This fills the requirements for a non-toxic, low-cost chemopreventive agent, which could be administered orally.

[5] = 2mM DTT, individual incubation, read-out: Percent Inhibition at: 7.5 min.
[6] = 2mM DTT, individual incubation, read-out: Percent Inhibition at: 15 min.

O=C(O)c1ccc(SSc2ccc(C(=O)O)cn2)nc1 [6,6'-dithiodinicotinic acid]
prevention of metastases [1]: known to prevent metastases in mice
Number of Colonies Per Plate With Inhibitor ([2]; 2-Aflatoxin 0 (control) µg/plate): 104
Number of Colonies Per Plate With Inhibitor ([2]; 2-Aflatoxin 20 µg/plate): 188
Number of Colonies Per Plate With Inhibitor ([2]; 2-Aflatoxin 50 µg/plate): 358
Number of Colonies Per Plate With Inhibitor ([2]; 2-Aflatoxin 100 µg/plate): 471
Number of Colonies Per Plate With Inhibitor ([2]; 2-Aminofluorene 0 (control) µg/plate): 141
Number of Colonies Per Plate With Inhibitor ([2]; 2-Aminofluorene 5.0 µg/plate): 705
Number of Colonies Per Plate With Inhibitor ([2]; 2-Aminofluorene 15.0 µg/plate): 655
Number of Colonies Per Plate With Inhibitor ([2]; 2-Aminofluorene 25.0 µg/plate): 791
Number of Colonies Per Plate With Inhibitor ([2]; Benzo-[a]-pyrene 0 (control) µg/plate): 111
Number of Colonies Per Plate With Inhibitor ([2]; Benzo-[a]-pyrene 2.5 µg/plate): 339
Number of Colonies Per Plate With Inhibitor ([2]; Benzo-[a]-pyrene 5.0 µg/plate): 446
Number of Colonies Per Plate With Inhibitor ([2]; Benzo-[a]-pyrene 10.0 µg/plate): 488
inhibition at 0.3 mg/plate ([2]; 2-Aminofluorene 5.0 µg/plate, inhibitor 0.3 mg/plate, read-out: Decrease (%)): 10%
inhibition at 0.3 mg/plate ([2]; Benzo-[a]-pyrene 2.5 µg/plate, inhibitor 0.3 mg/plate, read-out: Decrease (%)): 74%
inhibition at 0.3 mg/plate ([2]; Benzo-[a]-pyrene 5.0 µg/plate, inhibitor 0.3 mg/plate, read-out: Decrease (%)): 62%
inhibition at 0.3 mg/plate ([2]; Benzo-[a]-pyrene 10.0 µg/plate, inhibitor 0.3 mg/plate, read-out: Decrease (%)): 58%
inhibition at 0.3 mg/plate ([2]; read-out: Decrease (%), 2-Aflatoxin 0 (control) µg/plate, inhibitor 0.3 mg/plate): 0%
inhibition at 0.3 mg/plate ([2]; read-out: Decrease (%), 2-Aflatoxin 20 µg/plate, inhibitor 0.3 mg/plate): 63%
inhibition at 0.3 mg/plate ([2]; read-out: Decrease (%), 2-Aflatoxin 50 µg/plate, inhibitor 0.3 mg/plate): 68%
inhibition at 0.3 mg/plate ([2]; read-out: Decrease (%), 2-Aflatoxin 100 µg/plate, inhibitor 0.3 mg/plate): 72%
inhibition at 0.3 mg/plate ([2]; read-out: Decrease (%), 2-Aminofluorene 0 (control) µg/plate, inhibitor 0.3 mg/plate): 0%
inhibition at 0.3 mg/plate ([2]; read-out: Decrease (%), 2-Aminofluorene 15.0 µg/plate, inhibitor 0.3 mg/plate): 72%
inhibition at 0.3 mg/plate ([2]; read-out: Decrease (%), 2-Aminofluorene 25.0 µg/plate, inhibitor 0.3 mg/plate): 63%
inhibition at 0.3 mg/plate ([2]; read-out: Decrease (%), Benzo-[a]-pyrene 0 (control) µg/plate, inhibitor 0.3 mg/plate): 0%
inhibition at 0.3 mg/plate ([2]; read-out: number of mutants decreased, present in the culture prior to addition of carcinogen (benzo-[a]-pyrene, 2-aflatoxin, or 2-aminofluorene)): ~70%
mutagenic effect of carcinogenic chemicals ([2]; benzo-[a]-pyrene, 2-aflatoxin, and 2-aminofluorene): greatly diminished
inhibition at 5 µg/mL [3, 5]: 0%
inhibition at 5 µg/mL [3, 6]: 14%
inhibition at 25 µg/mL [3, 5]: 0%
inhibition at 25 µg/mL [3, 6]: 0%
inhibition at 50 µg/mL [3, 5]: 37%
inhibition at 50 µg/mL [3, 6]: 38%
inhibition at 100 µg/mL [3, 5]: 68%
inhibition at 100 µg/mL [3, 6]: 54%
inhibition at 150 µg/mL ([3]; 150 µg/ml, 2mM DTT, individual incubation, read-out: Percent Inhibition at: 7.5 min.): 88%
inhibition at 150 µg/mL ([3]; 150 µg/ml, 2mM DTT, individual incubation, read-out: Percent Inhibition at: 15 min.): 70%
inhibition at 150 µg/mL ([3]; 150 µg/ml, 2mM DTT, individual incubation, read-out: Percent Inhibition at: 20 min.): 90%
extent of conversion of substrate to bound product after addition of excess DTT ([3]; 150 µg/ml, excess DTT added to incubation): did not increase
inhibition at 300 µg/mL ([3]; 300 µg/ml, 2mM DTT, individual incubation, read-out: Percent Inhibition at: 20 min.): 93%
inhibition at 600 µg/mL ([3]; 600 µg/ml, 2mM DTT, individual incubation, read-out: Percent Inhibition at: 20 min.): 83%
inhibition of ADPRP ([3]; at 50 µg/ml, 2mM DTT): Significant and specific inhibition
inhibition of ADPRP ([3]; at 150 µg/ml and above (0.5 molar equivalents of DTT and above)): almost complete inhibition
inhibition of ADPRP ([3]; at 5 and 25 µg/ml): No inhibition
toxicity [4]: not a toxic compound
